Results as given in US8133998B2, “Bicyclic pyrimidine derivatives as calcium channel blockers” (Zalicus Pharmaceuticals, Ltd., priority 2007, dated 2012).

What was measured:
[1] = target: T1, human α1G T-type channels (Homo sapiens, UniProt O43497); assay: T-type calcium channel block, whole cell patch clamp in HEK cells; type: cell-based; conditions: HEK cells stably expressing human α1G; measured at 1 μM drug; mainly non-inactivated protocol
T1 construct: expressed in transfected cells; host or cells: HEK 293
Protocol: (§1) T-type calcium channel blocking activity was assayed in human embryonic kidney cells, HEK 293, stably transfected with the T-type calcium channel subunits. Briefly, cells were cultured in Dulbecco's modified eagle medium (DMEM) supplemented with 10% fetal bovine serum, 200 U/ml penicillin and 0.2 mg/ml streptomycin at 37° C. with 5% CO2. At 85% confluency cells were split with 0.25% trypsin/1 mM EDTA and plated at 10% confluency on glass coverslips. At 12 hours the medium was replaced and the cells stably transfected using a standard calcium phosphate protocol and the appropriate calcium channel cDNA's. Fresh DMEM was supplied and the cells transferred to 28° C./5% CO2. Cells were incubated for 1 to 2 days prior to whole cell recording.
(§2) Standard patch-clamp techniques were employed to identify blockers of T-type currents. Briefly, previously described HEK cell lines stably expressing human α1G, α1H and α1I T-type channels were used for all the recordings (passage #: 4-20, 37° C., 5% CO2). Whole cell patch clamp experiments were performed using an Axopatch 200B amplifier (Axon Instruments, Burlingame, Calif.) linked to a personal computer equipped with pCLAMP software. Data were analyzed using Clampfit (Axon Instruments) and SigmaPlot 4.0 (Jandel Scientific). To obtain T-type currents, plastic dishes containing semi-confluent cells were positioned on the stage of a ZEISS AXIOVERT S100 microscope after replacing the culture medium with external solution (see below). Whole-cell patches were obtained using pipettes (borosilicate glass with filament, O.D.: 1.5 mm, I.D.: 0.86 mm, 10 cm length), fabricated on a SUTTER P-97 puller with resistance values of ˜5 MΩ (see below for internal solution).
(§3) In the non-inactivating protocol, the holding potential is set at −110 mV and with a pre-pulse at −100 mV for 1 second prior to the test pulse at −40 mV for 50 ms. In the inactivation protocol, the pre-pulse is at approximately −85 mV for 1 second, which inactivates about 15% of the T-type channels.
(§4) Test compounds were dissolved in external solution, 0.1-0.01% DMSO. After ˜10 min rest, they were applied by gravity close to the cell using a WPI microfil tubing. The “non-inactivated” pre-pulse was used to examine the resting block of a compound. The “inactivated” protocol was employed to study voltage-dependent block. However, the initial data shown below were mainly obtained using the non-inactivated protocol only. Kd values are shown for various compounds of the invention in Table 4 measured at 1 μM for the drug of interest except for compound 18 which was measured at 200 nM.

[2] = target: T2, human α1H T-type channels (Homo sapiens, UniProt O95180); assay: as above; type: cell-based; conditions: HEK cells stably expressing human α1H; measured at 1 μM drug; mainly non-inactivated protocol
T2 construct: expressed in transfected cells; host or cells: HEK 293
Protocol: as §1, §2, §3, §4

T1 sequence (O43497 whole entry): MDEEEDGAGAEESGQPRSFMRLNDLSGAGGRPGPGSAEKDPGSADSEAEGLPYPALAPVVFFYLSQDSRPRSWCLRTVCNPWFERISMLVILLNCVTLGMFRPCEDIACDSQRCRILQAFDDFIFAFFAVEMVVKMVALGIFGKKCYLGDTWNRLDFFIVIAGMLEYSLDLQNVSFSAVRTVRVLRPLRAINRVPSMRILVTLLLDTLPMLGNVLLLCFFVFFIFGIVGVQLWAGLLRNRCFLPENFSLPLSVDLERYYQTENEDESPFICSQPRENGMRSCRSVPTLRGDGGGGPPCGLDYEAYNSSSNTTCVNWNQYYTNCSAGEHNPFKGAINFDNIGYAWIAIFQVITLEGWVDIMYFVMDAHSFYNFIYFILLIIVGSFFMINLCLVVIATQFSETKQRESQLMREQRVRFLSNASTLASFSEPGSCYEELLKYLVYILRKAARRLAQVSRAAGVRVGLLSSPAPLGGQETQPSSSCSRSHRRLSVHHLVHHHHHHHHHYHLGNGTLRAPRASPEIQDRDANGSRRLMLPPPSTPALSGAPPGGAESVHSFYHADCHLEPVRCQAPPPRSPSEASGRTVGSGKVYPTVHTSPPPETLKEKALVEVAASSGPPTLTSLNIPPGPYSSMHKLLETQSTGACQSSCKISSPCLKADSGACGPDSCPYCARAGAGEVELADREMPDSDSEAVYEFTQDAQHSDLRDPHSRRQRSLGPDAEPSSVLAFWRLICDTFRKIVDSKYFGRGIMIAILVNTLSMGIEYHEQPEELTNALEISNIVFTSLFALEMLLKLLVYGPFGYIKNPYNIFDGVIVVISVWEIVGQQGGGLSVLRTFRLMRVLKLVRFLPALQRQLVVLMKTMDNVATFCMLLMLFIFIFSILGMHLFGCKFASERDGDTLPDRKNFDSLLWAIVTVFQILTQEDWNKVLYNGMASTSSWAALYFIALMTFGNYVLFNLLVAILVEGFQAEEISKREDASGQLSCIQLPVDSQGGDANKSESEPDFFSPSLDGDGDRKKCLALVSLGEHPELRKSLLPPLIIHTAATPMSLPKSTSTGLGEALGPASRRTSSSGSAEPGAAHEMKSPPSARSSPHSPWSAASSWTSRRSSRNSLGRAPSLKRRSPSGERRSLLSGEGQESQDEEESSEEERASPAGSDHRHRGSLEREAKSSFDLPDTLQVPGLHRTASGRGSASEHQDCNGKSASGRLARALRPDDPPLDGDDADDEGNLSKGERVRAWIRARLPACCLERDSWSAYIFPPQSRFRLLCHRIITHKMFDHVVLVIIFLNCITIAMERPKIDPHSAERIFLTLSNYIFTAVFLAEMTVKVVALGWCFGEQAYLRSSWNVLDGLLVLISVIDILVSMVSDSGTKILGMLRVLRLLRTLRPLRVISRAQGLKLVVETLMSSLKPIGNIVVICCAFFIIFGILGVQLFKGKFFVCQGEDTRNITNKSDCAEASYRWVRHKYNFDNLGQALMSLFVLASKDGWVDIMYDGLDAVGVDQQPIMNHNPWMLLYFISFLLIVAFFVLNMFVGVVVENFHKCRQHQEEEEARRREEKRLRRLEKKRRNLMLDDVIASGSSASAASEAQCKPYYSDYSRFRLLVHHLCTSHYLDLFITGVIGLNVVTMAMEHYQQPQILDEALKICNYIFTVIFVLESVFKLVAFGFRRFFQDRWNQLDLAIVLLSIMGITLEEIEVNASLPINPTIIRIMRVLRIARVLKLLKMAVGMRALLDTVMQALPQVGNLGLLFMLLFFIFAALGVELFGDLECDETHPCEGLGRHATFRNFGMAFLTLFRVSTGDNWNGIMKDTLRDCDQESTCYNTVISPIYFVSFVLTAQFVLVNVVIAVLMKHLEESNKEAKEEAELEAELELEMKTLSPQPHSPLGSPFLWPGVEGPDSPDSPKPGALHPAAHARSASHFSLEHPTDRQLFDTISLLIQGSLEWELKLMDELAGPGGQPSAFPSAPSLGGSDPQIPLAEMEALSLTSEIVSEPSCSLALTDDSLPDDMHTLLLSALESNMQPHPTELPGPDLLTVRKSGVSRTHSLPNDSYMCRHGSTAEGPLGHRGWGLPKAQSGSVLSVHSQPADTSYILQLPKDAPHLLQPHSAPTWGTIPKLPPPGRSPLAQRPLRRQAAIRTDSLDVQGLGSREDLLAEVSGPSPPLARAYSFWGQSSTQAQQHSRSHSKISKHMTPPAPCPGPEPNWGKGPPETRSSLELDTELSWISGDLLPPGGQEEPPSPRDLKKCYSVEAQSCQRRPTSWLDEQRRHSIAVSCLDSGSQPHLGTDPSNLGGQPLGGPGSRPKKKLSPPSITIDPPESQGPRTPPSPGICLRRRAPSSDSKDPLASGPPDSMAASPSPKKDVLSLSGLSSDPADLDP
T2 sequence (O95180 whole entry): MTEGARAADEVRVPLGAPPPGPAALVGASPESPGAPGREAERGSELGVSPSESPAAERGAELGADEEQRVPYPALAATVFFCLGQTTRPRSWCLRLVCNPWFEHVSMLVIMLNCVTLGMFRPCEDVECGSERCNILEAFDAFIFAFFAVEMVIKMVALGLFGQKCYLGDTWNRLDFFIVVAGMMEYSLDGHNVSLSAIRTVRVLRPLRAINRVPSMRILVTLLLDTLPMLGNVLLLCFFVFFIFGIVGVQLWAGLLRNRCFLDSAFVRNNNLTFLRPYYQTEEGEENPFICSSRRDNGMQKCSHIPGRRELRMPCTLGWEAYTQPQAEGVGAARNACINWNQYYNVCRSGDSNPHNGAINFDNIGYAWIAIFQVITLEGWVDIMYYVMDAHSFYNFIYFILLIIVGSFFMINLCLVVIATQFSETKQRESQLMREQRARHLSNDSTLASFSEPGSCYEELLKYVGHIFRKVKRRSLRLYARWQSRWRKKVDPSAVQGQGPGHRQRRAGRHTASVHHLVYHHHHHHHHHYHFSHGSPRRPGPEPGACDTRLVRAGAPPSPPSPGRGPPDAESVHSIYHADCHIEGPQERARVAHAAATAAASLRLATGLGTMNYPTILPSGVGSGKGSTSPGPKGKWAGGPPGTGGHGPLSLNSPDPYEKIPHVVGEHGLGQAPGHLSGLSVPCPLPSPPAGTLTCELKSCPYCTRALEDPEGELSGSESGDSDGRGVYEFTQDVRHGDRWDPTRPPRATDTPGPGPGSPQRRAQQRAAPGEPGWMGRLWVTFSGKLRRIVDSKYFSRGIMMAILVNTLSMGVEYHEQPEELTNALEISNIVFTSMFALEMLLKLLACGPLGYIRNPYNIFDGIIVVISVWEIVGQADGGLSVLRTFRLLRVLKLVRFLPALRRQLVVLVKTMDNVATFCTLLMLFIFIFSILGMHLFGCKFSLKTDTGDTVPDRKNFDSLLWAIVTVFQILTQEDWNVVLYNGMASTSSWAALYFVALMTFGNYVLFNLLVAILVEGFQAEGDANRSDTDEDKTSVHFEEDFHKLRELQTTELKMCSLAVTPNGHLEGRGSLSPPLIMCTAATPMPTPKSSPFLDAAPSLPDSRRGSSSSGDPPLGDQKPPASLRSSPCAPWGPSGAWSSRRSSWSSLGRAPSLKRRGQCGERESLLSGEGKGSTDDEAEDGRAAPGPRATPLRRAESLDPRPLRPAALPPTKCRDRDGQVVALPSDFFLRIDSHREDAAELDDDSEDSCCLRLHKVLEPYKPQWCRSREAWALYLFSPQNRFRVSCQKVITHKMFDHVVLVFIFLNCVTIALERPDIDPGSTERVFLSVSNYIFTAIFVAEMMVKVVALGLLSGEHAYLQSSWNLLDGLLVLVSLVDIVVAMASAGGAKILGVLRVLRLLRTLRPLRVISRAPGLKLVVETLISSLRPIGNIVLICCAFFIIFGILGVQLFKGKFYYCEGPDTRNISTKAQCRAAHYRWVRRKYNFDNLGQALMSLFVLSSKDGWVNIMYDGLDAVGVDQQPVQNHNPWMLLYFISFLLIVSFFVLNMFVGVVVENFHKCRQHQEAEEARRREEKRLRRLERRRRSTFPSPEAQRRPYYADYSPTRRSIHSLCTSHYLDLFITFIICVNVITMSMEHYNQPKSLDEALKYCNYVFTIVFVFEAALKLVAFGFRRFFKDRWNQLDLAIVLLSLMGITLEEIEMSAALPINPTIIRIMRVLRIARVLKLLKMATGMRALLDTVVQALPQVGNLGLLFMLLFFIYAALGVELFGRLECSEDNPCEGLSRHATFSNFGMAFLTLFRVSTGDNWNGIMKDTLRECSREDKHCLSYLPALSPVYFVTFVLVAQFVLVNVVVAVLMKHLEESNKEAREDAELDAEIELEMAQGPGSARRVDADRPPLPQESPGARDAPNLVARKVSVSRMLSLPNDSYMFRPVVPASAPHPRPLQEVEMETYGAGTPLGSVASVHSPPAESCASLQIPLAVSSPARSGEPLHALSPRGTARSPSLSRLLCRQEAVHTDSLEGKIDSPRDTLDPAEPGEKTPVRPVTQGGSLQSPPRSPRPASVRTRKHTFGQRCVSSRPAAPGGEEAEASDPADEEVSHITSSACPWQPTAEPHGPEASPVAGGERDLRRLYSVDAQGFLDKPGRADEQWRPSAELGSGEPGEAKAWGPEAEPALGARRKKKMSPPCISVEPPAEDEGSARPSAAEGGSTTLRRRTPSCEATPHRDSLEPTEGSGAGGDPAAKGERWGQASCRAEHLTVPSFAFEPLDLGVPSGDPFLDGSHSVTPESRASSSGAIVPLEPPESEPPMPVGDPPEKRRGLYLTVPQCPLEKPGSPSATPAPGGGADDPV

Kd [1] [nM] | Kd [2] [nM] | Structure (SMILES)
510 | 18200 | Cc1c(C(=O)N2CCN(c3ccc(F)c(Cl)c3)CC2)sc2ncn(CC(=O)N3CCCC3)c(=O)c12 [Compound 134, 6-(4-(3-chloro-4-fluoro-phenyl)piperazine-1-carbonyl)-5-methyl-3-(2-oxo-2-(pyrrolidin-1-yl)ethyl)thieno[2,3-d]pyri-midin-4(3H)-one]
3470 | 390 | CCN(CC(F)(F)F)C(=O)Cn1cnc2sc(C(=O)N3CCN(c4ccc(C(F)(F)F)cc4)CC3)c(C)c2c1=O [Compound 130, N-ethyl-2-(5-methyl-4-oxo-6-(4-(4-(trifluromethyl)phenyl)piperazine-1-carbonyl)thieno[2,3-d]pyrimidin-3(4H)-yl)-N-(2,2,2-trifluoroethyl)acetamide]
1150 | 630 | CCN(CC(F)(F)F)C(=O)Cn1cnc2sc(C(=O)N3CCN(c4cccc(Cl)c4)CC3)c(C)c2c1=O [Compound 127, 2-(6-(4-(3-chlorophenyl)piperazine-1-carbonyl)-5-methyl-4-oxothieno[2,3-d]pyrimidin-3(4H)-yl)-N-ethyl-N-(2,2,2-trifluoroethyl)acetamide]
1720 | 750 | Cc1c(C(=O)N2CCN(c3ccccc3F)CC2)sc2ncn(CC(=O)NC3CCCC3)c(=O)c12 [Compound 36, N-cyclopentyl-2-(6-(4-(2-fluorophenyl)piperazine-1-carbonyl)-5-methyl-4-oxothieno[2,3-d]pyrimidin-3(4H)-yl)acetamide]
1680 | 720 | Cc1c(C(=O)N2CCN(c3ccccc3F)CC2)sc2ncn(CC(=O)N3CCCCC3)c(=O)c12 [Compound 81, 6-(4-(2-fluorophenyl)piperazine-1-carbonyl)-5-methyl-3-(2-oxo-2-(piperidin-1-yl)ethyl)thieno[2,3-d]pyrimidin-4(3H)-one]

The next lines start with the compound.

Structure (SMILES) | Kd [1] [nM] | Kd [2] [nM]
Cc1c(C(=O)N2CCN(c3cccc(Cl)c3)CC2)sc2ncn(CC(=O)NC(C)(C)C)c(=O)c12 [Compound 16, N-tert-butyl-2-(6-(4-(3-chlorophenyl)piperazine-1-carbonyl)-5-methyl-4-oxothieno[2,3-d]pyrimidin-3(4H)-yl)acetamide] | 1370 | 630
Cc1c(C(=O)N2CCN(c3ccc(F)cc3)CC2)sc2ncn(CC(=O)NC3CCCCC3)c(=O)c12 [Compound 22, N-cyclohexyl-2-(6-(4-(4-fluorophenyl)piperazine-1-carbonyl)-5-methyl-4-oxothieno[2,3-d]pyrimidin-3(4H)-yl)acetamide] | 1360 | 430
CCN(CC)C(=O)Cn1cnc2sc(C(=O)N3CCN(c4ccc(Cl)cc4)CC3)c(C)c2c1=O [Compound 5, 2-(6-(4-(4-chlorophenyl)piperazine-1-carbonyl)-5-methyl-4-oxothieno[2,3-d]pyrimidin-3(4H)-yl)-N,N-diethylacetamide] | 1230 | 620
Cc1c(C(=O)N2CCN(c3cc(C(F)(F)F)cc(C(F)(F)F)c3)CC2)sc2ncn(CC(=O)NC(C)(C)C)c(=O)c12 [Compound 17, 2-(6-(4-(3,5-bis(trifluoromethyl)phenyl)piperazine-1-carbonyl)-5-methyl-4-oxothieno[2,3-d]pyrimidin-3(4H)-yl)-N-tert-butylacetamide] | 510 | 500
CCN(CC)C(=O)Cn1cnc2sc(C(=O)N3CCN(c4cccc(Cl)c4)CC3)c(C)c2c1=O [Compound 1, 2-(6-(4-(3-chlorophenyl)piperazine-1-carbonyl)-5-methyl-4-oxothieno[2,3-d]pyrimidin-3(4H)-yl)-N,N-diethylacetamide] | 2440 | 890
Cc1c(C(=O)N2CCN(c3ccc(Cl)cc3)CC2)sc2ncn(CC(=O)NC(C)(C)C)c(=O)c12 [Compound 15, N-tert-butyl-2-(6-(4-(4-chlorophenyl)piperazine-1-carbonyl)-5-methyl-4-oxothieno[2,3-d]pyrimidin-3(4H)-yl)acetamide] | 2370 | 870
